Data taken from patent publication US9096494B2, “Arachidonic acid analogs and methods for analgesic treatment using same” (priority 2009, dated 2015).
Values joined by “and” are separate entries in the source; they are usually repeats but may differ in a detail not shown here. Equal entries are not always repeated.

How the values were obtained:
mice [1] = test: Writhing assay in mouse (bolus and continuous infusion); type: in vivo
TRPV1(VR1) agonist = biological target: T1, TRPV1(VR1) agonist (Rattus norvegicus, UniProt O35433); test: Cerep BioPrint receptor binding
T1 construct: Cerep (contract screen)
T1 sequence (O35433 whole entry): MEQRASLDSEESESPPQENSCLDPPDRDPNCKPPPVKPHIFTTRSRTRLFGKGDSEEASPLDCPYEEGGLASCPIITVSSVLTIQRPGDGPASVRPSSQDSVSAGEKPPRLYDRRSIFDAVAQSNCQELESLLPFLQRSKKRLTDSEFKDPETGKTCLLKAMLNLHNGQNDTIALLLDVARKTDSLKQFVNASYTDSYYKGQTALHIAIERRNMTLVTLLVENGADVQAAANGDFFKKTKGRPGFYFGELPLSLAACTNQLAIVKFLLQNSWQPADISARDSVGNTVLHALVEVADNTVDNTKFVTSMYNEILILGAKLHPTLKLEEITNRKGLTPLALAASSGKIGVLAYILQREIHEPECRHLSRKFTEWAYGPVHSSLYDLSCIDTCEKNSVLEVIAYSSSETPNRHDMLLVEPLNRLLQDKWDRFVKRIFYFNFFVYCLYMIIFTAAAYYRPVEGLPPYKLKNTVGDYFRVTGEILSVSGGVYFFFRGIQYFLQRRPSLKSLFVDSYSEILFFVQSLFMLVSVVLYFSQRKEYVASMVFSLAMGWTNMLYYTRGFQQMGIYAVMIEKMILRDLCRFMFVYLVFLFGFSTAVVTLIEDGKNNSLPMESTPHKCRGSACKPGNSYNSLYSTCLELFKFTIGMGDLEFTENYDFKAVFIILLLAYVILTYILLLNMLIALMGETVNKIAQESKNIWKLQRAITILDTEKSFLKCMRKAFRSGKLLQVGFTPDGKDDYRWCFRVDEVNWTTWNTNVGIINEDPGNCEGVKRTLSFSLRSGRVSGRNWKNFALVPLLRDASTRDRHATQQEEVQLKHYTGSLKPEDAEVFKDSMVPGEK

Antipyretic effect = type: in vivo, mice; conditions: CMX-020 Injectable Solution
Procedure: CMX-020 Injectable Solution may also be given to patients during surgery or dental procedures to relieve pain and as an adjunct to an anaesthetic.
Recordings of body temperature in male mice (30 grams) were achieved using a mouse rectal temperature probe. Baseline was recorded twice for 10 minutes at intervals of 2 minutes with a 15 minute span of no recording.

Adenosine/A2A = biological target: T2, Adenosine/A2A (Homo sapiens, UniProt P29274); test: Cerep BioPrint dependence and addiction panel; type: binding
T2 construct: Cerep (contract screen)
T2 sequence (P29274 whole entry): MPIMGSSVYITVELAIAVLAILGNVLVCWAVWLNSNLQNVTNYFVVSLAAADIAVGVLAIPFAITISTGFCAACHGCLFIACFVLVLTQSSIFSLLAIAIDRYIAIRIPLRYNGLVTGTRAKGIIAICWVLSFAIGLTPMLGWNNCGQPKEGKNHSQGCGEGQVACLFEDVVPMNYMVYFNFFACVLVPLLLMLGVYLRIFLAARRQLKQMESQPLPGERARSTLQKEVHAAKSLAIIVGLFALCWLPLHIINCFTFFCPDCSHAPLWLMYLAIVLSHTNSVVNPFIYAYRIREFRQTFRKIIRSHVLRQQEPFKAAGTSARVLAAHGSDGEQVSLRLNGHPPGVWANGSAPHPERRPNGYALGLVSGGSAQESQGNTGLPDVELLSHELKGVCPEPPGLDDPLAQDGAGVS

GABA/GABAA = test: Cerep BioPrint dependence and addiction panel; type: binding
[2] = biological target: T3, MT1(ML1A) agonist-Melatonin (Homo sapiens, UniProt P48039); test: Cerep BioPrint receptor binding
T3 construct: Cerep (contract screen)
T3 sequence (P48039 whole entry): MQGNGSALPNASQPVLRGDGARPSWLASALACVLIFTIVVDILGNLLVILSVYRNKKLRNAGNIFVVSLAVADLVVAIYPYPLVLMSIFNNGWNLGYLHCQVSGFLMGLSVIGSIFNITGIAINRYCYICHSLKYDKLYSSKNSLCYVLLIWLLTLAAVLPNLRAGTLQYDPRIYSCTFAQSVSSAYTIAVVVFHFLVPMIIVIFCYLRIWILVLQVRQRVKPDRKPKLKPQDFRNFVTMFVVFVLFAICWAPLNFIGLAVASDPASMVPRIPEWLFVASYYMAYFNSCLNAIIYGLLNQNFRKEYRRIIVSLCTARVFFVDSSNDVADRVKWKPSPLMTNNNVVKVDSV

[3] = Intravenous analgesia: onset and duration of effect
Opioid/mu(MOP) = biological target: T4, Opioid/mu(MOP) (Homo sapiens, UniProt P35372); test: Cerep BioPrint dependence and addiction panel; type: binding
T4 construct: Cerep (contract screening panel)
T4 sequence (P35372 whole entry): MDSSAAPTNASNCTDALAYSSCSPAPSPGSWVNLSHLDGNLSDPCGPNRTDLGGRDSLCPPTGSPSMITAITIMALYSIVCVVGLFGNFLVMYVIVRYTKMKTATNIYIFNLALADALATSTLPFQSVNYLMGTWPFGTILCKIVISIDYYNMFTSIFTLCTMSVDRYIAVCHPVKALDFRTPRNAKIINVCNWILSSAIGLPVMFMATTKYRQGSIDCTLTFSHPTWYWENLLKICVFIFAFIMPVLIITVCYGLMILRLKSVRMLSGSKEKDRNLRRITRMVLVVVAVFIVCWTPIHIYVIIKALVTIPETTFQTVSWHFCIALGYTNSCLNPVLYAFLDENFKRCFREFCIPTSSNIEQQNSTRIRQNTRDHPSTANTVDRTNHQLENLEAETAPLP

plasma or serum proteins = test: Binding to plasma or serum proteins; type: in vitro ADME
Procedure: (§1) For the initial BioPrint screen, a free compound concentration of 10 μM was used, which corresponds to a 2.5 mg/kg bolus dose in a mouse. […] Thus, a 2.5 mg/kg bolus dose would be equivalent to a […] free compound concentration.

[4] = LC/MS pharmacokinetics of CMX-020 in mice (plasma, brain, liver); conditions: 15 min timepoint, 10 mg/kg iv, n=2 individual values
CB1 Cannabinoid agonist = biological target: T5, CB1 Cannabinoid agonist (Homo sapiens, UniProt P21554); test: Cerep BioPrint receptor binding
T5 construct: Cerep (contract screen)
T5 sequence (P21554 whole entry): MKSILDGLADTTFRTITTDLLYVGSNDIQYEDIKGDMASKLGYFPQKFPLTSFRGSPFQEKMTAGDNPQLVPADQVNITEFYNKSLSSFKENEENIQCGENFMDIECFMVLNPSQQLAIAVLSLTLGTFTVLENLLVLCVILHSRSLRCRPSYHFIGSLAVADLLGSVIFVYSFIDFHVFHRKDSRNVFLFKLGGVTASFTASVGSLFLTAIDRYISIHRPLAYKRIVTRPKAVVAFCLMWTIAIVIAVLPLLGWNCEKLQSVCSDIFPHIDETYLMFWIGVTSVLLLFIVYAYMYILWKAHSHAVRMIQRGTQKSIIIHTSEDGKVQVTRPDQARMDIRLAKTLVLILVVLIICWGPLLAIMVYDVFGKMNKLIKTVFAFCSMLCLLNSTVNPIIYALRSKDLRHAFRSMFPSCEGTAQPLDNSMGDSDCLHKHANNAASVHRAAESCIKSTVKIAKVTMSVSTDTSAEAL
Procedure: as §1

mice [5] = test: LD50 established using mice; type: in vivo
Procedure: (§2) LD50 (abbreviation for “Lethal Dose, 50%”) is established using mice. The dose translation between mouse and human is based on body surface area allometric translation. For example, a 1 mg/kg mouse dose is equivalent to a 0.08 mg/kg human dose. For more information on species dose translation see: Reagan-Shaw et. al, FASEB J. 122, 659-661 (2007).

[6] = LD50 established using mice; type: in vivo; conditions: in vivo, body surface area translation mouse to human
Procedure: as §2

Serotonin/5-HT1A = biological target: T6, Serotonin/5-HT1A (Homo sapiens, UniProt P08908); test: Cerep BioPrint dependence and addiction panel; type: binding
T6 construct: Cerep (contract screen)
T6 sequence (P08908 whole entry): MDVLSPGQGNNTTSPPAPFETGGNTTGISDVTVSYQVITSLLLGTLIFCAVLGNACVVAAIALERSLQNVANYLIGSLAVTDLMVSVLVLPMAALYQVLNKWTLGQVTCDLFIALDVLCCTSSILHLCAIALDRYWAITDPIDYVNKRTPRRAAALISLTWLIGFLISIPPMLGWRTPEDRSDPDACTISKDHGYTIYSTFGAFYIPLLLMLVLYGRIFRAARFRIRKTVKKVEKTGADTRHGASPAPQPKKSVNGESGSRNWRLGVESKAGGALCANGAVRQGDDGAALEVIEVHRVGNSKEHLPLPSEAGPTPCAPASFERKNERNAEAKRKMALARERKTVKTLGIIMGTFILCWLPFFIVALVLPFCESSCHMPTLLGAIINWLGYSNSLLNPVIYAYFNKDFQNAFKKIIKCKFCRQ

Serotonin/5-Ht2A = biological target: T7, Serotonin/5-Ht2A (Homo sapiens, UniProt P28223); test: Cerep BioPrint dependence and addiction panel; type: binding
T7 construct: Cerep (contract screen)
T7 sequence (P28223 whole entry): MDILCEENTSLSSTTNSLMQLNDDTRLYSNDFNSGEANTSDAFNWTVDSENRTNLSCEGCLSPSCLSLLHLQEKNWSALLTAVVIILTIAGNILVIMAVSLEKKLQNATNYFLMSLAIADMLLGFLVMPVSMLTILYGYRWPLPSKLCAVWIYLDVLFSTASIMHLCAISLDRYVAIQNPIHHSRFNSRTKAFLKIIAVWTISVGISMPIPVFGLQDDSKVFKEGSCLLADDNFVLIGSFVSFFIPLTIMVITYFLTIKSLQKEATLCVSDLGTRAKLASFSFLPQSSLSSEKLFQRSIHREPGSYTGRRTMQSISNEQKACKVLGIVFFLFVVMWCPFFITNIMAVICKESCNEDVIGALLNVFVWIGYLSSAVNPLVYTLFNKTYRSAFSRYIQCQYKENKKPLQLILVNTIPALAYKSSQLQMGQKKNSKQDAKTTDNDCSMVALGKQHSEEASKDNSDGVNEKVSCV

[7] = Analgesic potency comparison with natural EETs and AM404; conditions: in vivo
Source text: Chemically, it is close structural analog of a set of lipid mediators derived from arachidonic acid that the body uses to control pain.

[8] = biological target: T8, Serotonin/5HT transporter (Homo sapiens, UniProt P31645); test: Cerep BioPrint dependence and addiction panel; type: binding
T8 construct: Cerep (contract screening panel)
T8 sequence (P31645 whole entry): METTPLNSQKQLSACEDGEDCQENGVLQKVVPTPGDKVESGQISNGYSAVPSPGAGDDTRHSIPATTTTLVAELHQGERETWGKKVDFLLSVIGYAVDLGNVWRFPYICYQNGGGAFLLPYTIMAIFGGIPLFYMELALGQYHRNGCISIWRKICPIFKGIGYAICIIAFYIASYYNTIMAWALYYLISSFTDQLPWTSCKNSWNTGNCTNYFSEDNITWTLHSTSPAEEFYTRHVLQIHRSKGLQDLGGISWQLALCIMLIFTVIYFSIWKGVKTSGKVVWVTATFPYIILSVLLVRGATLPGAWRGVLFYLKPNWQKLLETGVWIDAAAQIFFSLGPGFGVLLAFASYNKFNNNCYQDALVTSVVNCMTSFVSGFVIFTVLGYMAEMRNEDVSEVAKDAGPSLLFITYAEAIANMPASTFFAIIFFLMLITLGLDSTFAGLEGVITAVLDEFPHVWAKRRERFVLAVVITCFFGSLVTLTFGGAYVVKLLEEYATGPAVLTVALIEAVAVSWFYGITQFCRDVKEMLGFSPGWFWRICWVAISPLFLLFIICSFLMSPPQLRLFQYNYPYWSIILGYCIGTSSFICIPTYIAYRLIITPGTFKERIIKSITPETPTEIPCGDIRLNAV

Glutamate/AMPA = test: Cerep BioPrint dependence and addiction panel; type: binding
Serotonin/5-HT3 = Serotonin/5-HT3 (Homo sapiens, UniProt P46098); test: Cerep BioPrint dependence and addiction panel; type: binding
Sequence of Serotonin/5-HT3 (P46098 24-478): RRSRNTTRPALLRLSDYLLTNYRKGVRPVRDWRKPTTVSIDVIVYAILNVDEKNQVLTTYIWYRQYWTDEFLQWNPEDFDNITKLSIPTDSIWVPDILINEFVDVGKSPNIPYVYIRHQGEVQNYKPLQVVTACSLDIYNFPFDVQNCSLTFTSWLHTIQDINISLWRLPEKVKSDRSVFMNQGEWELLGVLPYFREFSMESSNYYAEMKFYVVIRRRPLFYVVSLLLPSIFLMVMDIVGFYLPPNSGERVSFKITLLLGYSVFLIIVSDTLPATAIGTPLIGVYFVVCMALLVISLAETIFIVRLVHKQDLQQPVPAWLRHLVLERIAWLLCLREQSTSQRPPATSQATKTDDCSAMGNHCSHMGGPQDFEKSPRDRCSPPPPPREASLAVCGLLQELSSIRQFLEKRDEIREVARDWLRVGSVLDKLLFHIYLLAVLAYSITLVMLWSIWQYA

[9] = tested on: Dopamine transporter/5HT transporter; test: Cerep BioPrint dependence and addiction panel; type: binding
Opioid/NOP(ORL1) = biological target: T9, Opioid/NOP(ORL1) (Homo sapiens, UniProt P41146); test: Cerep BioPrint dependence and addiction panel; type: binding
T9 construct: Cerep (contract screening panel)

Dopamine/D3 = Dopamine/D3 (Homo sapiens, UniProt P35462); test: Cerep BioPrint dependence and addiction panel; type: binding
Sequence of Dopamine/D3 (P35462 whole entry): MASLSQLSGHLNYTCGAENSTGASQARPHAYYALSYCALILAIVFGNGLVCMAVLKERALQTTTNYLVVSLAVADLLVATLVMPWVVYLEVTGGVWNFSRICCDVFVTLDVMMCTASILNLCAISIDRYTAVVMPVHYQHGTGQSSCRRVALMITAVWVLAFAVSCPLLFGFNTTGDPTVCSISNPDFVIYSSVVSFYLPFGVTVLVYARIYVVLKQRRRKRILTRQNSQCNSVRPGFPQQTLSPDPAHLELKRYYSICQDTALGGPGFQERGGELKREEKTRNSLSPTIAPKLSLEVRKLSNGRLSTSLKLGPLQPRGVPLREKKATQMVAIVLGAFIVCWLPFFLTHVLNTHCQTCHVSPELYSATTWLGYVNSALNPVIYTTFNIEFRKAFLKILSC

ATPase/ATPase(Na+/K+) = test: Cerep BioPrint dependence and addiction panel (enzyme); type: biochemical
GABA/GABAB(1b) = biological target: T10, GABA/GABAB(1b) (Homo sapiens, UniProt Q9UBS5); test: Cerep BioPrint dependence and addiction panel; type: binding
T10 construct: Cerep (contract screen)

Cholecystokinin/CCK2 = biological target: T11, Cholecystokinin/CCK2 (Homo sapiens, UniProt P32239); test: Cerep BioPrint dependence and addiction panel; type: binding
T11 construct: Cerep (contract screen)

mice [10] = test: Tail-flick assay in mouse; type: in vivo; conditions: 10 mg/kg intravenous bolus
Procedure: The tail-flick assay is based on the time measured to reflex withdrawal of the tail in response to a radiant heat source. The maximum exposure time to the radiant heat source is set at 10 seconds. Prior to treatment, a baseline (BL) time measured to tail-flick withdrawal is determined after two exposures to the radiant source separated by a 30 min period. Control mice are intravenously treated with vehicle and test mice are intravenously treated with analgesic test compound. Data of tail-flick withdrawal of treated mice (TM) are calculated as maximum possible effect (MPE), where MPE=(TM−BL)/(10−BL). Tail-flick withdrawal is measured at 5 min, 15 min, 30 mm, and 1 hr. A total of 3-5 mice are used for each time point tested.

[11] = CMX-020 Injectable Emulsion, from mouse writhing assay
[12] = continuous infusion, from mouse writhing assay

CCCCCC(=O)N(CC/C=C\C/C=C\C/C=C\CCCC(=O)NC1CC1)C(C)C [CMX-020]
continuous infusion dose producing roughly the same level of analgesia (roughly 50% MPE), writhing assay (mice [1]; 24 hour infusion by Alzet pump, measured at 3 hours and 20 hours, preliminary): 2 mg/kg/h | analgesic response compared with Perfalgan 12.5 mg/kg, writhing assay (mice [1]; CMX-020 0.05 mg/kg): higher analgesic response than Perfalgan | Analgesic Equivalent to Acetaminophen 2x, Bolus dose (mice [1]; [11]): 0.02 mg/kg | Analgesic Equivalent to Acetaminophen 3x, Bolus dose (mice [1]; [11]): 0.04 mg/kg | time over which analgesic levels are sustained by continuous infusion (mice [1]; continuous infusion in mice): 24 h | Analgesic Equivalent to Acetaminophen 1x, Maintenance dose (mice [1]; [12]): 0.08 mg/kg/h | Analgesic Equivalent to Acetaminophen 2x, Maintenance dose (mice [1]; [12]): 0.16 mg/kg/h | Analgesic Equivalent to Acetaminophen 3x, Maintenance dose (mice [1]; [12]): 0.32 mg/kg/h | Analgesic Equivalent to Acetaminophen 1x, Bolus dose (mice [1]; for a 70 kg human): 0.6 mg | Analgesic Equivalent to Acetaminophen 1x, Maintenance dose (mice [1]; for a 70 kg human): 6 mg/h | Analgesic Equivalent to Acetaminophen 2x, Bolus dose (mice [1]; for a 70 kg human): 1.4 mg | Analgesic Equivalent to Acetaminophen 2x, Maintenance dose (mice [1]; for a 70 kg human): 11 mg/h | Analgesic Equivalent to Acetaminophen 3x, Bolus dose (mice [1]; for a 70 kg human): 2.8 mg | Analgesic Equivalent to Acetaminophen 3x, Maintenance dose (mice [1]; for a 70 kg human): 23 mg/h | dose achieving 100% MPE, writhing assay (mice [1]; intravenous bolus): approximately 0.5 mg/kg | dose dependence of the level of analgesia (mice [1]; mouse writhing assay): dose dependent | Analgesic Equivalent to Acetaminophen 1x, Bolus dose (mice [1]; mouse, in vivo, iv): 0.01 mg/kg | IC50 (TRPV1(VR1) agonist): 7.5 µM | % Inhibition @10 uM (TRPV1(VR1) agonist; TRPV1(VR1) agonist, 10 uM): 59% | duration of the antipyretic effect after ending administration (Antipyretic effect): at least 2 hours | time to fever reduction after the start of administration (Antipyretic effect): ≤ 30 min | inhibition at 10 µM (Adenosine/A2A): 7% | % Inhibition @10 uM (GABA/GABAA): 11% | IC50 [2]: 1.2 µM | inhibition at 10 µM ([2]; MT1(ML1A) agonist-Melatonin, 10 uM): 88% | time to peak effect ([3]; animal tests): within minutes | time for which sustained levels of analgesia can be maintained ([3]; continuous infusion): ≥ 48 h | onset of analgesia after intravenous bolus injection or infusion ([3]; from the start of injection): 3 to 5 min | half-time of the blood-brain equilibration ([3]; intravenous): 1 to 3 min | duration of analgesic effect from bolus injection ([3]; intravenous bolus): 20 to 30 min and 20 to 25 min | inhibition at 10 µM (Opioid/mu(MOP)): 26% | fraction unbound (plasma or serum proteins): ~0.01 | amount present in brain [4]: 843 ng/g tissue | amount present in liver [4]: 211 ng/g tissue | IC50 (CB1 Cannabinoid agonist): 0.021 µM | inhibition at 10 µM (CB1 Cannabinoid agonist; CB1 Cannabinoid agonist, 10 uM): 98% | LD50 CMX-020 Doses, Maintenance (mice [5]; body surface area translation mouse to human): 6.4 mg/kg/h | LD50 CMX-020 Doses, Bolus (mice [5]; for a 70 kg human): 170 mg | LD50 CMX-020 Doses, Maintenance (mice [5]; for a 70 kg human): 450 mg/h | LD50 [6]: 2.4 mg/kg | % Inhibition @10 uM (Serotonin/5-HT1A): 26% | inhibition at 10 µM (Serotonin/5-Ht2A): 29% | analgesic potency in side-by-side comparison with AM404 [7]: more potent analgesic without the toxic effects | inhibition at 10 µM [8]: 10% | % Inhibition @10 uM (Glutamate/AMPA): 9% | % Inhibition @10 uM (Serotonin/5-HT3): −1% | % Inhibition @10 uM [9]: 15% | inhibition at 10 µM (Opioid/NOP(ORL1)): 5% | % Inhibition @10 uM (Dopamine/D3): 25% | % Inhibition @10 uM (ATPase/ATPase(Na+/K+)): 12% | inhibition at 10 µM (GABA/GABAB(1b)): -6% | inhibition at 10 µM (Cholecystokinin/CCK2): -27% | solubility in water (Solubility in water): very slightly soluble | time to maximal (full) analgesic response, tail-flick (mice [10]): 5 min
